Target: T1, PARP-1 (Homo sapiens, UniProt P09874)
T1 construct: gene PARP1
Experiment: PARP-1 colorimetric assay kit (BPS Bioscience […])
Type: biochemical

T1 sequence (P09874 2-1014): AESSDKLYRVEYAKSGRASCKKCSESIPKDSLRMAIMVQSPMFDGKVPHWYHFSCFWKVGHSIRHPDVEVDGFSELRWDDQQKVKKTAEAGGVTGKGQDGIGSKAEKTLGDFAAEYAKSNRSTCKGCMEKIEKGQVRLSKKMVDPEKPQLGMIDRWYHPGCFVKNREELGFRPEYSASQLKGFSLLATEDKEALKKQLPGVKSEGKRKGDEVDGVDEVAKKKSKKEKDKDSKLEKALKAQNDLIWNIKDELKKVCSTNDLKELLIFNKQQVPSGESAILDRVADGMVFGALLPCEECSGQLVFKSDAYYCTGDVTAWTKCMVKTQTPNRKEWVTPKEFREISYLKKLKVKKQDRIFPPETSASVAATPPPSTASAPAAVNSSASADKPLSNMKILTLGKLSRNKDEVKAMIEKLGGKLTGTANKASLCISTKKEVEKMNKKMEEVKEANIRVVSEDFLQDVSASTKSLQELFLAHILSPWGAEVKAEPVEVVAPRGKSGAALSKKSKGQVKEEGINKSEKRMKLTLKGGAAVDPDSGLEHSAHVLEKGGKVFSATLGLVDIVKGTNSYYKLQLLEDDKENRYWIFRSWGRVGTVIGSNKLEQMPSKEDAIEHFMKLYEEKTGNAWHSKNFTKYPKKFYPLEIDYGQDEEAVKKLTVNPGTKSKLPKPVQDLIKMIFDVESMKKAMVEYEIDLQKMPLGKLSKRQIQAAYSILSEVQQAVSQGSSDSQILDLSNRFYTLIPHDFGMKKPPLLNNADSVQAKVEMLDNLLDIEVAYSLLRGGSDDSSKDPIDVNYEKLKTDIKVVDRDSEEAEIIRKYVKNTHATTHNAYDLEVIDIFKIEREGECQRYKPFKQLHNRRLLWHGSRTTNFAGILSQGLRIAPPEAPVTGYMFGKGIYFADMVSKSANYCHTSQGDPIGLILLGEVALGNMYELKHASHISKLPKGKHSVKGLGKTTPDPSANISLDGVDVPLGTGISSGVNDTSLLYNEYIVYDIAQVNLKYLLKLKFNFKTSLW

SMILES: C/C=C(/C)C(=O)OC1=C(C(C)CCC=C(C)C)C(=O)C=C(C)C1=O (stereo not shown) [perezone angelate]
- IC50: 5.25 µM

From publication PMC8911992, “In Vitro and Computational Studies of Perezone and Perezone Angelate as Potential Anti-Glioblastoma Multiforme Agents” (Molecules, 2022)
